Source: patent US12391683B2, “Therapeutic compounds and methods” (Actio Biosciences, Inc., priority 2022, dated 2025)

Target: Human TRPV4 (Homo sapiens, UniProt Q9HBA0)
Experiment: TRPV4 calcium flux assay (FLIPR, antagonist mode)
Assay type: cell-based
Parameters: HiBiT (inferred from the expression read-out); host or cells: HEK293T
Settings: HEK293T cells transfected with hTRPV4; antagonist mode vs EC80 of TRPV4 agonist; average of at least 3 separate experiments; read-out: Human TRPV4 Ca2+ Assay IC50
Experimental: Example 23. TRPV4 Calcium Assay Methods
Human embryonic kidney 293T (HEK293T/293T) cells are cultured in complete media (Dulbecco's Modified Eagle Medium (DMEM), containing 10% fetal bovine serum (FBS) and 1× penicillin-streptomycin) in a T-75 tissue culture flask. At 90% confluency, cells are detached using TrypLE™ Express cell dissociation buffer. TrypLE™ Express buffer is neutralized by adding culture media in excess. Cells are gently triturated and counted using trypan blue in a Countess 3 automated cell counter. Cells are transferred to a 50 mL conical tube and spun down at 1000 rotations per minute (RPM) for five minutes in a benchtop centrifuge. Media containing detaching enzyme is aspirated off the pellet, followed by resuspension to the desired concentration of 2×10^6 cells per mL in complete DMEM.
Transfection preparations were scaled using a combination of 6 μg of TRPV4 wild-type or mutant plasmid DNA, 36 μL of Fugene6 transfection reagent, and 1000 μL of OptiMEM media for every 2×10^6 cells needed. The transfection mix is left to incubate for 20 minutes at room temperature. Total seeding mixture (1000 μL 2×10^6 cells, 1000 μL transfection mix previously described, and 1000 μL complete DMEM) for one transfection is combined into a 15 mL conical tube. The cells and transfection plasmid are mixed thoroughly and dispensed into a reservoir. This is plated at 25 μL per well in a black 384, black-well, clear-bottom, tissue-culture treated plate. This yields approximately 16,000 cells per well. Plasmid DNA constructs were designed by Actio Biosciences in conjunction with Genscript, and generated by Genscript, for all hTRPV4 wild-type and hTRPV4 P/LP (ClinVar) mutations (G78W, P82S, T891, P97R, R186Q, R232C, R232P, R237G, R237Q, R237 L, R269C, R269H, R269S, G270V, R271P, F273 L, K276E, E278K, G280S, Y281S, R315G, R315W, R316C, R316H, R316 L, R316S, I331F, D333G, S403T, K403T, K407E, S542P, S542Y, L543R, Y591N, R594C, R594H, R594S, G600E, Y602C, R616Q, F617 L, L618P, V6201, A716S, A716T, L735R, T740I, R775K, W785R, E797D, E797K, P799A, P799R, P799S, P799 L, G800D, K801E, P827H, F471del, N797del). The remaining cells are plated in the same manner, in a 384, white-well, clear-bottom, tissue-culture treated plate for expression and relative cell number determination. Plates are placed in the incubator at 37° C. overnight.
Compounds were brought to 10 mM in DMSO. DMSO concentration was kept constant throughout the dilution of any compound. DMSO negative control and concentration-response curves were nanoliter-spotted via PICO8 automated dispenser at 5× test concentration into a 384w clear polypropylene plate containing 1×HBSS+20 mM HEPES buffer. A predetermined concentration equivalent to the EC80 of TRPV4 agonist on hTRPV4 was prepared at 6× in 1×HBSS+20 mM HEPES and loaded into a separate 384-well v-bottom polypropylene plate.
Approximately 18 hours post-transfection, the cell plates were removed from the incubator and equal volume (25 uL) Calcium 6 dye was gently added. Calcium 6 dye containing probenecid (final 5 mM) was prepared per manufacturer's instructions. Cell plate was returned to the incubator for 1 hour, at 37° C.
FLIPR Penta was programmed to add compound using the following settings • Pipettor Head=384 • Read Mode 1 Excitation Wavelength=470_495 • Read Mode 1 Emission Wavelength=515_575 • Read Mode 1 Exposure=0.1000 • Read Mode 1 Gain=6.50 • Read Mode 1 Excitation Intensity=20 • Volume of addition=12.5 μL • Height=40 μL • Speed=15 μL/second
Raw data was exported and analyzed for maximum signal (RFU) after agonist addition—the average baseline (RFU) in the first 15 seconds per well. Data was plotted in GraphPad Prism to determine EC50 or IC50 of the molecules.

Sequence of Human TRPV4 (Q9HBA0 whole entry): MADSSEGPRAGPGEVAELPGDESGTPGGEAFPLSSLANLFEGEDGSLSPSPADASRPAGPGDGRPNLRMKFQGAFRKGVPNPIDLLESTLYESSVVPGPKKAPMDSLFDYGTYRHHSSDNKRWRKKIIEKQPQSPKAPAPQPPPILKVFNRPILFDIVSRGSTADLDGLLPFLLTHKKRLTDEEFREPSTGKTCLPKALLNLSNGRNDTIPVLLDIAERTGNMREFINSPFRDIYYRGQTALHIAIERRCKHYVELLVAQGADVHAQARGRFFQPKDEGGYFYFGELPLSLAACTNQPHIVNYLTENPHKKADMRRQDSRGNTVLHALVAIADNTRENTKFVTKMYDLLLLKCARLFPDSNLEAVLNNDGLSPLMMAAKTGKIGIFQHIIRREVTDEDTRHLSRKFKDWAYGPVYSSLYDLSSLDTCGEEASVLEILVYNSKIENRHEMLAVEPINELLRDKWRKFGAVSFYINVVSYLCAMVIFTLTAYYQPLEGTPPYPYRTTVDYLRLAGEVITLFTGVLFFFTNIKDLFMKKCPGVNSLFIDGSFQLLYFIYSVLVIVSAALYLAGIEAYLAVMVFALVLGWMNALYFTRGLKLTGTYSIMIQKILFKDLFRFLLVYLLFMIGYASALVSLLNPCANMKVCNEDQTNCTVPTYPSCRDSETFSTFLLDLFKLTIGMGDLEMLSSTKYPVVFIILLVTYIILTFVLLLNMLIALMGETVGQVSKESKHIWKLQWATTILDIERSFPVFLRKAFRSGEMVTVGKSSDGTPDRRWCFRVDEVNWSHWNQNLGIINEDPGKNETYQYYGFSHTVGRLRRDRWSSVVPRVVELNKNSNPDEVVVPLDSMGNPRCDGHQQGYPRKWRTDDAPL

CC(C)(O)c1cnc(N2C[C@@]3(CC[C@@H](F)[C@](C)(Cn4cnc5ccc(C#N)cc54)C3)OC2=O)cn1 (single isomer, unassigned) [Example 5]
IC50: 13 nM
